Laboratory results published in patent publication US11008332B2, “Pharmaceutical composition for preventing or treating aging-related diseases containing decursin derivative as active ingredient” (PRG S&TECH INC., priority 2017, dated 2021).

Columns and labels:
[1] = Chemical pharmacokinetic (PK) analysis, blood/plasma concentration by LC-MS/MS; format: in vivo; conditions: FIG. 2A
Method: For PK analysis, 5 mg/kg of JH4 in 10% DMSO, 5% Tween […] solution was intravenously injected and 10 mg/kg of JH4 in 10% NMP and 90% PEG400 solution was per orally delivered. At the setting time-points, blood concentration of JH4 was determined by LC-MS/MS analysis and the PK analysis for other chemicals was also tested by the similar protocol.

Plasma protein [2] = experiment: Plasma protein binding, human; format: in vitro ADME
Method: (§7) In vitro ADME studies (plasma protein binding, CYP inhibition, microsomal stability, plasma stability and hERG inhibition) were performed by New drug development center though standard protocols.

Plasma protein [3] = experiment: Plasma protein binding, rat; format: in vitro ADME
Method: as §7

Plasma stability, human = format: in vitro ADME
[4] = Liver microsomal stability, human; format: in vitro ADME
Method: as §7

[5] = Liver microsomal stability, rat; format: in vitro ADME
[6] = Liver microsomal stability, mouse; format: in vitro ADME
CYP1A2 = target: T1, CYP1A2 (Homo sapiens, UniProt P05177); experiment: CYP inhibition CYP1A2; format: in vitro ADME
T1 sequence (P05177 1-516): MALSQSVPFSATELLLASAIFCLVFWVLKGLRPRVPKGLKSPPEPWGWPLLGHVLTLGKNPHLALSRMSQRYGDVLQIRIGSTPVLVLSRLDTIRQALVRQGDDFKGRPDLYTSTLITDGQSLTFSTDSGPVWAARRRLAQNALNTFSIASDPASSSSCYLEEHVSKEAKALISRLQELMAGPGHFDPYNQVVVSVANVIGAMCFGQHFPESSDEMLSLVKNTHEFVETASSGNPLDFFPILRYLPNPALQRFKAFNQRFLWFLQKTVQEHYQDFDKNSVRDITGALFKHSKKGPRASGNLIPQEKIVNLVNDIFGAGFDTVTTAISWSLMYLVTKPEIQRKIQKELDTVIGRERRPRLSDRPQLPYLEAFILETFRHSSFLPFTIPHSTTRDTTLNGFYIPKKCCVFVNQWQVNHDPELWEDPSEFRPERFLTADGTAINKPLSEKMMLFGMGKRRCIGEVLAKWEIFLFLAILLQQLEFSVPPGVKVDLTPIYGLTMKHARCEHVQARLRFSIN
Method: as §7

CYP2C9 = CYP2C9 (Homo sapiens, UniProt P11712); experiment: CYP inhibition CYP2C9; format: in vitro ADME
Chain of CYP2C9 (P11712 whole entry): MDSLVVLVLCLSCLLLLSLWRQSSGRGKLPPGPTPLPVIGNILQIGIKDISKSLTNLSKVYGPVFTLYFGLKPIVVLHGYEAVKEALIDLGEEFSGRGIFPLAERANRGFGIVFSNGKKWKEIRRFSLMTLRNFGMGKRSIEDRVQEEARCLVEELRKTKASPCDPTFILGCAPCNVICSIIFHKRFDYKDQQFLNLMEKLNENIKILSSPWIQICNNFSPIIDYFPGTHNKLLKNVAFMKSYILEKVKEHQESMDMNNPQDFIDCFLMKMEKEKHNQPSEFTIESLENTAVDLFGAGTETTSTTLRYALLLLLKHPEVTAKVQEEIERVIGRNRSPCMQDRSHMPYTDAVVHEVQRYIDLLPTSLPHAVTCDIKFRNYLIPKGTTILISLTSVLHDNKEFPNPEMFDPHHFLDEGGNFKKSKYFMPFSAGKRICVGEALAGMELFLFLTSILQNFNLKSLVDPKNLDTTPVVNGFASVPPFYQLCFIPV
Method: as §7

CYP2C19 = CYP2C19 (Homo sapiens, UniProt P33261); experiment: CYP inhibition CYP2C19; format: in vitro ADME
Chain of CYP2C19 (P33261 whole entry): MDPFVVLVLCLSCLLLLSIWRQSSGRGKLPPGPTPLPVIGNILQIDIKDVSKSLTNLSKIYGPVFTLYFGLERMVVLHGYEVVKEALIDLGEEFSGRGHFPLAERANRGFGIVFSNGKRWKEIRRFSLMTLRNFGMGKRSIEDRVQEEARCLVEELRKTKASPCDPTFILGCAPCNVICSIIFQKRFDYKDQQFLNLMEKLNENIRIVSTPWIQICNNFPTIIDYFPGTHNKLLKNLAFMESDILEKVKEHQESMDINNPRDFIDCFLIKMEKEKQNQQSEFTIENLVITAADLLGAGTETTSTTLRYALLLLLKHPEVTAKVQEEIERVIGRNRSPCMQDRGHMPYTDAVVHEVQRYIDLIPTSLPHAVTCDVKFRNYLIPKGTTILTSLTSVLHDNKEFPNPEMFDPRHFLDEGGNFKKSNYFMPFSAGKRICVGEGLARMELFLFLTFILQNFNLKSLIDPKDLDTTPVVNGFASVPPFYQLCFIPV
Method: as §7

CYP2D6 = CYP2D6 (Homo sapiens, UniProt P10635); experiment: CYP inhibition CYP2D6; format: in vitro ADME
Chain of CYP2D6 (P10635 whole entry): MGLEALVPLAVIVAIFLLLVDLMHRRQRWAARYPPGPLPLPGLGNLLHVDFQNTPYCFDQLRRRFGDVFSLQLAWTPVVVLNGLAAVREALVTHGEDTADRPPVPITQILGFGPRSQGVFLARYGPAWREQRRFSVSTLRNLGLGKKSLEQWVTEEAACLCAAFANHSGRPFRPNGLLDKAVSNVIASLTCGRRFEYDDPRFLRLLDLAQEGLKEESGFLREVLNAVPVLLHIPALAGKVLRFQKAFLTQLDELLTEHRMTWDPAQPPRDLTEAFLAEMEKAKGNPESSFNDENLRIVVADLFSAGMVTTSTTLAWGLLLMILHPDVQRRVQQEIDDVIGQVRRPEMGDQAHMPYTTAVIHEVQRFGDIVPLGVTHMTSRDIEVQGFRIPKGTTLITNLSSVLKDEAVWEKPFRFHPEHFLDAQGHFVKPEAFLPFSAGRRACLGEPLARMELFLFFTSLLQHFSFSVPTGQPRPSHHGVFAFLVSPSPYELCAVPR
Method: as §7

HGPS cells = experiment: Immunofluorescence staining of HGPS cells (nuclear morphology, progerin, H3K9me3); format: cell-based, Human
Method: (§1) Human fibroblast cells from HGPS patients (AG03198, person; AG03199; person), WS patients (AG06300, person; AG03141, person; AG00780, person) and controls (GM 00038, person) were obtained from the Coriell Cell Repositories (Camden, N.J., USA) and were maintained in EMEM, containing 15% FBS, 2 mM glutamine or HEMEM with 26 mM HEPES without antibiotics.
(§2) Cells were seeded on a cover glass and transfected with the indicated vectors.
(§3) After fixing with 100% methanol or 1% paraformaldehyde (PFA) for 1 h at 4° C., cells were incubated with blocking buffer (PBS+anti-human-Ab; 1:400) for 1 h.
(§4) After washing with PBS twice, cells were incubated with anti-Lamin A/C, Progerin or H3K9Me3 in blocking buffer (1:200) overnight and sequentially with anti-goat Ab-FITC or anti-rabbit Ab-rhodamin in blocking buffer (1:500) for 7 h and mounted, and nucleus was stained with DAPI. Thereafter Immunofluorescence signal was detected by fluorescence microscopy (Zeiss and Logos).
(§5) For counting nuclear deformed cell, obtained immunofluorescence images were used. Nuclear membrane showing abnormalities, dependent on Lamin A staining, were counted from randomly selected field. Counted cells were calculated percentage.

WS cells = experiment: Immunofluorescence staining of Werner syndrome (WS) patient cells (nuclear morphology, proliferation, H3K9me3); format: cell-based, Human
Method: as §1, §2, §3, §4, §5
To measure the cell proliferation, DAPI stained cells were counted from immunofluorescence images.

[7] = tested on: Lmna^G609G/G609G, progeria model mouse; experiment: Life span, body weight and morphology of Lmna^G609G/G609G progeria model mice; format: in vivo
Method: The experiments were performed in the Association for Assessment and Accreditation of Laboratory Animal Care certified facility, in compliance with animal policies approved by Pusan National University.
Lmna^G609G/609G mice were generated as timed mating of heterozygous Lmna^+/G609G provided by Carlos López-Otin (Universidad de Oviedo, Asturias, Oviedo, Spain).
SLC-D011, mixed with DMOS and PBS, were intraperitoneally injected in mice (20 mg/kg twice per week from 5-week-old). In addition, SLC-D011 dissolved at a concentration of 10 mg/ml in monoolein-based solution was orally administrated to mice in 5 times a week and control mice were treated in the same conditions by administering monoolein-based solution alone.
Lmna^G609G/609G mice were treated with clear chemical solution throughout life span, starting from 5 weeks of age. Lmna^+/G609G were treated via intraperitoneal, starting from 32 weeks of age.

[8] = tested on: collagen 1A expression in HaCaT cells; experiment: Collagen 1A expression in HaCaT cells (Western blot); format: cell-based, human; conditions: 2 or 5 μM, 24 hours, FIG. 5A
Method: (§6) Human keratinocyte HaCaT cells and normal fibroblast 9N (GM 00038, person) and N46 (AG13299, person) were treated with 2 or 5 μM SLC-D011 and incubated for 24 hours and then the amount of collagen 1A expression was confirmed in HaCaT cells and fibroblasts was confirmed.

[9] = tested on: collagen 1A expression in normal fibroblast; experiment: Collagen 1A expression in normal fibroblasts 9N and N46 (Western blot); format: cell-based, human; conditions: normal fibroblast 9N and N46, 2 or 5 μM, 24 hours, FIG. 5B
Method: as §6

Water solubility = format: physicochemical
[10] = Lmna^G609G/G609G mice, 20 mg/kg i.p injection twice per week from 5 week age, FIG. 2C
[11] = Lmna^G609G/G609G mice, oral gavage 50 mg/kg daily in monoolein solution from 5 weeks old, FIG. 3C

In the case of `CC1(C)Oc2cc3oc(=O)ccc3cc2C[C@@H]1OC/C=C/c1ccccc1` [SLC-D011, (7S)-(+)-8,8-dimethyl-7-(3-phenyl-allyloxy)-7,8-dihydro-6H-pyrano[3,2-g]chromen-2-one], the bioavailability ([1]; blood, oral, PK analysis, read-out: bioavailability (B.A.)) is reported as 66%, the PK profile ([1]; in vivo PK analysis) is reported as “proper PK profile” and the “Plasma protein binding Human (% Bound)” value (Plasma protein [2]) is reported as 99.9 % Bound. The “Plasma protein binding Rat (% Bound)” value (Plasma protein [3]) was 99.8 % Bound, the “Plasma stability (% remaining) Human 30 min” value (Plasma stability, human; 30 min) was >100 % remaining and the “Plasma stability (% remaining) Human 120 min” value (Plasma stability, human; 120 min) was >100 % remaining. For the same molecule, the “Liver microsomal stability (% remaining during 30 min) Human (%)” value [4] was 21.5%, the “Liver microsomal stability (% remaining during 30 min) Rat (%)” value [5] was 17.4% and the “Liver microsomal stability (% remaining during 30 min) Mouse (%)” value [6] was 59.7%. The “CYP inhibition CYP1A2” value (CYP1A2) was 81.6, the “CYP inhibition CYP2C9” value (CYP2C9) was 78.4 and the “CYP inhibition CYP2C19” value (CYP2C19) was 28.8. For the same molecule, the “CYP inhibition CYP2D6” value (CYP2D6) was 91.7, the “nuclear abnormality of HGPS cells” value (HGPS cells; HGPS cells incubated 48 hr, FIG. 1E) was “improved nuclear abnormality of HGPS cells” and the “progerin expression in HGPS cells” value (HGPS cells; HGPS cells incubated 48 hr, progerin staining, FIG. 1E) was “reduces progerin expression”. The “H3K9me3 expression in HGPS cells” value (HGPS cells; immunostaining, FIG. 1F) was “induced H3K9me3 expression”, the “nuclear morphology of WS cells” value (WS cells; WS cells incubated 48 hr, FIG. 4F) was “improved nuclear morphology” and the “H3K9me3 expression in WS cells” value (WS cells; WS cells incubated 48 hr, FIG. 4G) was “induced expression of H3K9me3”. For the same molecule, the “cell proliferation of WS cells” value (WS cells; WS patient cells, FIG. 4F) was “improved nuclear morphology and cell proliferation”, the “life-span extended to” value ([7]; Lamn^G609G/G609G mice, i.p injection) was 20 weeks and the “body size and gross morphology” value ([7]; Lamn^G609G/G609G mice, i.p injection, FIG. 2D) was “body size increase and gross morphology were also improved”. For the same molecule, the lifespan extension ([7]; Lamn^G609G/G609G mice, oral administration in olein-based solution) was 4.5 weeks, the “average (ave) life span” value [7, 10] was 19.5 weeks and the “maximum (max) life span” value [7, 10] was 21 weeks. The “body weight increase compared to vehicle group” value ([7]; Lmna^G609G/G609G mice, oral administration, FIG. 3D) was “about 35%”, the “body size at 8 weeks old” value ([7]; Lmna^G609G/G609G mice, oral administration, FIG. 3E) was “apparently larger than that of vehicle-mouse” and the average life span [7, 11] was 19.3 weeks. For the same molecule, the maximum life span [7, 11] was 19.5 weeks, the “collagen expression in keratinocytes” value [8] was “increasing collagen expression” and the “collagen expression in fibroblasts” value [9] was “increasing collagen expression”. The water solubility (Water solubility) was “very low water solubility”.
